Experiment: recombinant barcode read abundance after kanamycin selection (control-corrected) (log10(CPM+1)); higher = more efficient recombination; sequences stand for … in AGTGCAGAGAAAATCGGCCAGTTTTCTCTGCCTGCAGTCCGCATGCCGT…AGATTTATGCAGCGGACTGCCTTTCTCCCAAAGTGATAAACCGGACAGTATCATGGACCGGTTTTCCCGGTAATCCGTATTTGCAAGGTTGGTTTCACT; site = the 11-nt target
In short: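 Reported as log10(CPM+1), each value stands for recombination efficiency. That efficiency is the averaged, control-corrected counts per million of barcodes found at recombinant junctions. Cells from a pooled E. coli library pairing targets with IS621 bridge RNA target-binding loops were plated twice on chloramphenicol/ampicillin LB agar (control) and twice on chloramphenicol/ampicillin/kanamycin with 0.1 mM IPTG.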

In order of rising “recombinant barcode read abundance (log10)” value:
1. ACCTTAACTTGGGTTCTAACCTGTTGCCT (site ATCTCAACTAG)  0
2. CTCTAGCCTTGGGTTCTAACCTGTTGCAT (site GTCCAGCCTAT)  0
3. TGTTACCCTTGGGTTCTAACCTGTTGCCT (site TGGTACCCTAG)  0.0146
4. GGCCTCCCTTGGGTTCTAACCTGTTGCAT (site CGCCTCCCTAT)  0.0328
5. TTGCAAACTTGGGTTCTAACCTGTTGCCT (site TTGCGAACTAG)  0.0337
6. TATAAAACTTGGGTTCTAACCTGTTGCCT (site TATACAACTAG)  0.0401
7. CACTTAACTTGGGTTCTAACCTGTTGCCT (site CACTTAGCTAG)  0.0439
8. CAAAGTCCTTGGGTTCTAACCTGTTGCCT (site CAAAGTCCTAC)  0.0449
9. ATATGAGCTTGGGTTCTAACCTGTTGCCG (site ATATGGGCTCG)  0.0468
10. TGAATGTCTTGGGTTCTAACCTGTTGCCT (site TGAACGTCTAG)  0.0549
11. CCGTCTACTTGGGTTCTAACCTGTTGCTG (site CCGTCTACTGA)  0.0602
12. GGGTACACTTGGGTTCTAACCTGTTGCTA (site AGGTAGACTTA)  0.0922
13. CTCGGATCTTGGGTTCTAACCTGTTGCCT (site CTCGGAGCTAG)  0.0938
14. TAACACTCTTGGGTTCTAACCTGTTGCTT (site GAACACTCTCA)  0.105
15. ACCCACACTTGGGTTCTAACCTGTTGCCG (site TCCCACACTTG)  0.111
16. TATTAACCTTGGGTTCTAACCTGTTGCCT (site TATTACCCTAG)  0.117
17. CATTCGCCTTGGGTTCTAACCTGTTGCGT (site TGGCTAGCTGT)  0.138
18. TAGCCACCTTGGGTTCTAACCTGTTGCCT (site AAGCCACCTAG)  0.151
19. GCACGCTCTTGGGTTCTAACCTGTTGCCT (site GCACCCTCTAG)  0.192
20. TAGAAGCCTTGGGTTCTAACCTGTTGCTA (site TAGAAGGCTTA)  0.21
21. CGAGGTTCTTGGGTTCTAACCTGTTGCCT (site CGCGGTTCTAG)  0.212
22. CGCGCGGCTTGGGTTCTAACCTGTTGCCT (site CGCGCGGCTAG)  0.251
23. AATACTACTTGGGTTCTAACCTGTTGCTG (site AATACTACTCA)  0.256
24. GATTCACCTTGGGTTCTAACCTGTTGCCT (site TATTCACCTAG)  0.274
25. CGGCCCTCTTGGGTTCTAACCTGTTGCCT (site CCGCCCTCTAG)  0.29
26. TAGCTCACTTGGGTTCTAACCTGTTGCAT (site TAGTTCACTAT)  0.307
27. AGGTCGGCTTGGGTTCTAACCTGTTGCCT (site AGATCGGCTAG)  0.329
28. TCGCGTCCTTGGGTTCTAACCTGTTGCAA (site TCGCGTCCTTT)  0.402
29. AATTGTCCTTGGGTTCTAACCTGTTGCCT (site AATTGTCCTAA)  0.411
30. ACGGGGTCTTGGGTTCTAACCTGTTGCCT (site TCGGGGTCTAG)  0.416
31. AGCCTGTCTTGGGTTCTAACCTGTTGCCT (site AGCCTGACTAG)  0.444
32. ACTACTACTTGGGTTCTAACCTGTTGCCT (site AGTACTACTAG)  0.492
33. CGAGCAGCTTGGGTTCTAACCTGTTGCCT (site CGGGCAGCTAG)  0.519
34. GAATATTCTTGGGTTCTAACCTGTTGCCT (site GAATATTCTAG)  0.739
35. GCGCATCCTTGGGTTCTAACCTGTTGCCT (site GCGCATCCTAG)  0.753
36. TTGCTAACTTGGGTTCTAACCTGTTGCCT (site TTGCTAACTAG)  0.802
37. GAGGTAACTTGGGTTCTAACCTGTTGCCT (site GATGTAACTAG)  0.822
38. TAGTGTTCTTGGGTTCTAACCTGTTGCAT (site TAGTGTTCTAT)  0.918
39. GTAATTGCTTGGGTTCTAACCTGTTGCCT (site GTAATTGCTAG)  0.918
40. GATGCGACTTGGGTTCTAACCTGTTGCCG (site GATGCGACTCG)  0.968
41. AGATTTACTTGGGTTCTAACCTGTTGCCT (site AAACTTACTAG)  1.28
42. AAGCCACCTTGGGTTCTAACCTGTTGCCT (site TAGCCACCTAG)  1.31
43. AGAGTAGCTTGGGTTCTAACCTGTTGCTA (site AGAGTAGCTTA)  1.31
44. GCCCTCCCTTGGGTTCTAACCTGTTGCCT (site GCCCTCCCTAG)  1.77
45. CTAGTCCCTTGGGTTCTAACCTGTTGCCG (site CTAGTCCCTCG)  1.79
46. CTCCTCTCTTGGGTTCTAACCTGTTGCAT (site CTCCTCTCTAT)  2.03
47. GACGGCACTTGGGTTCTAACCTGTTGCGG (site GACGGCACTCC)  2.56
48. AGACGACCTTGGGTTCTAACCTGTTGCGG (site AGACGACCTCC)  2.95

Experiment: recombinant barcode read abundance after kanamycin selection (control-corrected) (log10(CPM+1)); higher = more efficient recombination; sequences stand for … in AGTGCAGAGAAAATCGGCCAGTTTTCTCTGCCTGCAGTCCGCATGCCGT…ATTTATGCAGCGGACTGCCTTTCTCCCAAAGTGATAAACCGGACAGTATCATGGACCGGTTTTCCCGGTAATCCGTATTTGCAAGGTTGGTTTCACT; site = the 11-nt target
Experimental: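 Same pooled E. coli target screen (IS621 bridge recombinase, kanamycin selection, control-corrected CPM, mean of 2 biological replicates). Here the two core-binding nucleotides of the LTG and RTG of the bridge RNA target-binding loop are mutated. Target and donor CT cores are held constant, and the other 9 guide positions match the target. The target is read from the library oligo sequence. Molecule = full bridge RNA written as DNA: nt 1-80 from the library oligo, rest WT scaffold.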

In order of falling “recombinant barcode read abundance (log10)” value:
1. GGGCGTGCTTGGGTTCTAACCTGTTGCCTGC [GGGCGTGCTAG_LTGcore_CT_RTGcore_GC] (site GGGCGTGCTAG) (LTG core: CT, RTG core: GC)  0.847
2. GGGCGTGCTTGGGTTCTAACCTGTTGCCTTC [GGGCGTGCTAG_LTGcore_CT_RTGcore_GA] (site GGGCGTGCTAG) (LTG core: CT, RTG core: GA)  0.564
3. GTCGCCCGTTGGGTTCTAACCTGTTGCTAAG [GTCGCCCCTTA_LTGcore_GT_RTGcore_CT] (site GTCGCCCCTTA) (LTG core: GT, RTG core: CT)  0.431
4. CGCGCCCCTTGGGTTCTAACCTGTTGCGGAA [CGCGCCCCTCC_LTGcore_CT_RTGcore_TT] (site CGCGCCCCTCC) (LTG core: CT, RTG core: TT)  0.319
5. TTATAAACATGGGTTCTAACCTGTTGCCTAG [TTATAAACTAG_LTGcore_CA_RTGcore_CT] (site TTATAAACTAG) (LTG core: CA, RTG core: CT)  0.314
6. GTCGCCCTCTGGGTTCTAACCTGTTGCTAGA [GTCGCCCCTTA_LTGcore_TC_RTGcore_TC] (site GTCGCCCCTTA) (LTG core: TC, RTG core: TC)  0.236
7. AGGCGGTCTTGGGTTCTAACCTGTTGCTTAT [AGGCGGTCTAA_LTGcore_CT_RTGcore_AT] (site AGGCGGTCTAA) (LTG core: CT, RTG core: AT)  0.144
8. CATATTACTTGGGTTCTAACCTGTTGCCTGA [CATATTACTAG_LTGcore_CT_RTGcore_TC] (site CATATTACTAG) (LTG core: CT, RTG core: TC)  0.138
9. TGATACCACTGGGTTCTAACCTGTTGCGTGT [TGATACCCTAC_LTGcore_AC_RTGcore_AC] (site TGATACCCTAC) (LTG core: AC, RTG core: AC)  0.136
10. CATATTAACTGGGTTCTAACCTGTTGCCTGT [CATATTACTAG_LTGcore_AC_RTGcore_AC] (site CATATTACTAG) (LTG core: AC, RTG core: AC)  0.119
11. AGGAGGTCTTGGGTTCTAACCTGTTGCCTTC [AGGAGGTCTAG_LTGcore_CT_RTGcore_GA] (site AGGAGGTCTAG) (LTG core: CT, RTG core: GA)  0.107
12. GGACACCGCTGGGTTCTAACCTGTTGCCTAG [GGACACCCTAG_LTGcore_GC_RTGcore_CT] (site GGACACCCTAG) (LTG core: GC, RTG core: CT)  0.105
13. TTATAAATGTGGGTTCTAACCTGTTGCCTCA [TTATAAACTAG_LTGcore_TG_RTGcore_TG] (site TTATAAACTAG) (LTG core: TG, RTG core: TG)  0.0981
14. AGTCTTAAATGGGTTCTAACCTGTTGCCATT [AGTCTTACTTG_LTGcore_AA_RTGcore_AA] (site AGTCTTACTTG) (LTG core: AA, RTG core: AA)  0.0761
15. TCTACCCACTGGGTTCTAACCTGTTGCTGAG [TCTACCCCTCA_LTGcore_AC_RTGcore_CT] (site TCTACCCCTCA) (LTG core: AC, RTG core: CT)  0.0555
16. TGATACCTATGGGTTCTAACCTGTTGCGTTA [TGATACCCTAC_LTGcore_TA_RTGcore_TA] (site TGATACCCTAC) (LTG core: TA, RTG core: TA)  0.0463
17. ATGTCCCCTTGGGTTCTAACCTGTTGCTCTG [ATGTCCCCTGA_LTGcore_CT_RTGcore_CA] (site ATGTCCCCTGA) (LTG core: CT, RTG core: CA)  0.00868

— the supplement of paper PMC11208160
